The test system of this assay is T1, ScBCO2 (β-carotene-9′,10′-oxygenase).
T1 construct: native enzyme purified from culture supernatant (ammonium sulfate, Q Sepharose, Superdex-200); ~50 kDa by SDS-PAGE; peptide mass fingerprint matched no database entry
In words: HPLC cleavage assay; Hanes-Woolf plot. In kind it is biochemical, Saccharomyces cerevisiae. To be noted: standard assay: 100 mM Tricine/KOH pH 8.0, 37 °C, 12.5 μM Fe2SO4, Tween 40; temperature of kinetic runs not stated; substrate 10-800 μM. The source says: HPLC cleavage assay; Hanes-Woolf plot on ScBCO2 (β-carotene-9′,10′-oxygenase)
With `CC1=C(/C=C/C(C)=C/C=C/C(C)=C/C=C/C=C(C)/C=C/C=C(C)/C=C/C2=C(C)CCCC2(C)C)C(C)(C)CCC1` [β-carotene], the Michaelis-Menten constant (Km) came out at 37 ± 0.2 µM. Next, `CC1=C[C@H](O)CC(C)(C)[C@H]1/C=C/C(C)=C/C=C/C(C)=C/C=C/C=C(C)/C=C/C=C(C)/C=C/C1=C(C)C[C@@H](O)CC1(C)C` [Lutein]: 105 ± 0.3 µM; `CC1=CCCC(C)(C)[C@H]1/C=C/C(C)=C/C=C/C(C)=C/C=C/C=C(C)/C=C/C=C(C)/C=C/C1=C(C)CCCC1(C)C` [α-carotene]: 48 ± 0.3 µM.

Usually Km stands for the substrate concentration at which the rate is half of its maximum.

These data come from paper PMC4565880, “Purification and characterization of a novel β-carotene-9′,10′-oxygenase from Saccharomyces cerevisiae ULI3” (Biotechnology Letters, 2015).
